Experiments:
[1] = target: T1, Histone-lysine N-methyltransferase EHMT2 (Homo sapiens, UniProt Q96KQ7)
T1 sequence (Q96KQ7 whole entry): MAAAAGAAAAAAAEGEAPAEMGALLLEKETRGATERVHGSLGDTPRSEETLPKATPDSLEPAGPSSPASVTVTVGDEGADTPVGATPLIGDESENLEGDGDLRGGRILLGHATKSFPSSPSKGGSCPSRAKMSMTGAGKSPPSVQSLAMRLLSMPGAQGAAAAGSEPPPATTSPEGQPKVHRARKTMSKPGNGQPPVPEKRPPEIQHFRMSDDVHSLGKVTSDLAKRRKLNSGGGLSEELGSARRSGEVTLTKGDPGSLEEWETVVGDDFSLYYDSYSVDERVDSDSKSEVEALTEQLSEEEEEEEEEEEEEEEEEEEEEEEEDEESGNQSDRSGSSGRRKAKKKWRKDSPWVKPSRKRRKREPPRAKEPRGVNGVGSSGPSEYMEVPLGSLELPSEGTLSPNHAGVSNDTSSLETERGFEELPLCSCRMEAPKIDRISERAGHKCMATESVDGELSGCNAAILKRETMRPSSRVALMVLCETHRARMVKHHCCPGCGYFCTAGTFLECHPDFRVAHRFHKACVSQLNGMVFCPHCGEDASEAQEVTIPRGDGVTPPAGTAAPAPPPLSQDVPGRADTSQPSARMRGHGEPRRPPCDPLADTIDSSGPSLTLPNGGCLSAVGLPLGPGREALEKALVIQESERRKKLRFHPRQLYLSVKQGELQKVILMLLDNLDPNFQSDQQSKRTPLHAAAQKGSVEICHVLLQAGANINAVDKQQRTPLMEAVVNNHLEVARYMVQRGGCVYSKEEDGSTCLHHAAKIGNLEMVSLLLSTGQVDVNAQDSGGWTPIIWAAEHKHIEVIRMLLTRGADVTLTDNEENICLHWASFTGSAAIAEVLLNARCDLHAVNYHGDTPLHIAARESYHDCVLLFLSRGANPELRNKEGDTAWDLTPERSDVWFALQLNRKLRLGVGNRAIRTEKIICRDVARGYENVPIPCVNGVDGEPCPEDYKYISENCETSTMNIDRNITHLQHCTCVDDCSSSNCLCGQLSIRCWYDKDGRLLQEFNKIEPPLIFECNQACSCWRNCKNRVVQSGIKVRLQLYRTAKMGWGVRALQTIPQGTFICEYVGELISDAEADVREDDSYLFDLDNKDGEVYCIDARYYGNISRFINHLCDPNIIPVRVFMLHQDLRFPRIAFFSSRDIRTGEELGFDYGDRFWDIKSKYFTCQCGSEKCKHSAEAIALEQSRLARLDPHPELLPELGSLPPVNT
Description: Inhibition of lysine methyltransferase G9a (unknown origin) using [3H]-SAM as substrate after 0.25 hrs by scintillation proximity assay

MDA-MB-231 = experiment: cells; details: Homo sapiens, MDA-MB-231, 48 h
Description: Cytotoxicity against human MDA-MB-231 cells after 48 hrs by Alamar Blue assay

[2] = target: T1, Histone-lysine N-methyltransferase EHMT2; remark: listed apart in the source
Description: Inhibition of lysine methyltransferase G9a in human MDA-MB-231 cells assessed as reduction of H3K9me2 cellular level by immunofluorescence in-cell Western assay

Liver = experiment: Half life in mouse liver microsomes; type: ADME, Microsome
Histamine H3 receptor = Histamine H3 receptor (Homo sapiens, UniProt Q9Y5N1); experiment: Binding affinity to histamine H3 receptor (unknown origin) by radioligand binding assay
[3] = target: T2, Alpha-2C adrenergic receptor (Homo sapiens, UniProt P18825); experiment: Binding affinity to adrenergic alpha2C receptor (unknown origin) by radioligand binding assay
T2 sequence (P18825 whole entry): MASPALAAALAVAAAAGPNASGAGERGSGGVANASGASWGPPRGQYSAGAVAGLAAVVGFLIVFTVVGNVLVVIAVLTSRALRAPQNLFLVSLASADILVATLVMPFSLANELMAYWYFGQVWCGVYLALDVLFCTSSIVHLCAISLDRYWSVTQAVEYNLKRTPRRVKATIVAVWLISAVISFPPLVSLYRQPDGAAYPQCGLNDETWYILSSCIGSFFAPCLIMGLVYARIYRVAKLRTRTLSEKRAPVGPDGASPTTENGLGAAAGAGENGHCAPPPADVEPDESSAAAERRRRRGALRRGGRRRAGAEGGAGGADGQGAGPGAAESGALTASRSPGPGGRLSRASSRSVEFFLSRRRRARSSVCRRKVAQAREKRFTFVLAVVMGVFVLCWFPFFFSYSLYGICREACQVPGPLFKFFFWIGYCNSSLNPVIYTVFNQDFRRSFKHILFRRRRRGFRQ

Plasma [4] = experiment: Cmax in Swiss albino mouse plasma at 5 mg/kg, ip; type: ADME, organism-based; set-up: dose 5 mg/kg, route intraperitoneal; details: in vivo
PANC-1 = experiment: Cytotoxicity against human PANC1 cells after 48 hrs by Alamar Blue assay; type: cell-based; details: PANC-1, 48 h
[5] = AUC (0 to 24 hrs) in Swiss albino mouse brain at 5 mg/kg, ip; type: ADME, organism-based; set-up: time < 24 hr, dose 5 mg/kg, route intraperitoneal
Plasma [6] = experiment: AUC (0 to 24 hrs) in Swiss albino mouse plasma at 5 mg/kg, ip; type: ADME, organism-based; set-up: time < 24 hr, dose 5 mg/kg, route intraperitoneal; details: in vivo
[7] = target: T3, Alpha-1D adrenergic receptor (Homo sapiens, UniProt P25100); experiment: Binding affinity to adrenergic alpha1D receptor (unknown origin) by radioligand binding assay
T3 sequence (P25100 whole entry): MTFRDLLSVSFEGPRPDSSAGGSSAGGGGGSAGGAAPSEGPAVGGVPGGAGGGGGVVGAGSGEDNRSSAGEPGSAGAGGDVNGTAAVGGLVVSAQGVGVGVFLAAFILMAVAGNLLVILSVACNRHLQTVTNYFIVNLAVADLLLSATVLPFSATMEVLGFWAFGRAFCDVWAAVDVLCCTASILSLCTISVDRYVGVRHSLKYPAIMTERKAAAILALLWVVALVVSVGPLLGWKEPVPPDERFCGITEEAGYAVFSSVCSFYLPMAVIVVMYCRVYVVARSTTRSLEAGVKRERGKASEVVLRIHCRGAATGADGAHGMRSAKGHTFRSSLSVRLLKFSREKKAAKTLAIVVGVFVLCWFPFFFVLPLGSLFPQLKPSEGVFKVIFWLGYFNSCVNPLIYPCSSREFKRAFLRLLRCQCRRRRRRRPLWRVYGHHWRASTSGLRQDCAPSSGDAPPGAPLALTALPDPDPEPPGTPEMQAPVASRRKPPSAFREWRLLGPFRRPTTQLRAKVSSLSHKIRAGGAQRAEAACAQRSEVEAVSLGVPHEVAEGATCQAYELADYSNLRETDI

[8] = Binding affinity to sigma 2 receptor (unknown origin) by radioligand binding assay; set-up: species or system Homo sapiens
PC-3 = experiment: Cytotoxicity against human PC3 cells after 48 hrs by Alamar Blue assay; type: cell-based; details: PC-3, 48 h
U2OS = experiment: Cytotoxicity against human U2OS cells after 48 hrs by Alamar Blue assay; type: cell-based
[9] = Cmax in Swiss albino mouse brain at 5 mg/kg, ip; type: ADME, organism-based; set-up: dose 5 mg/kg, route intraperitoneal
Nucleic Acid = experiment: Ratio of drug level in brain to plasma in Swiss albino mouse at 5 mg/kg, ip; type: ADME, organism-based; set-up: dose 5 mg/kg, route intraperitoneal

Sequence of Histamine H3 receptor (Q9Y5N1 whole entry): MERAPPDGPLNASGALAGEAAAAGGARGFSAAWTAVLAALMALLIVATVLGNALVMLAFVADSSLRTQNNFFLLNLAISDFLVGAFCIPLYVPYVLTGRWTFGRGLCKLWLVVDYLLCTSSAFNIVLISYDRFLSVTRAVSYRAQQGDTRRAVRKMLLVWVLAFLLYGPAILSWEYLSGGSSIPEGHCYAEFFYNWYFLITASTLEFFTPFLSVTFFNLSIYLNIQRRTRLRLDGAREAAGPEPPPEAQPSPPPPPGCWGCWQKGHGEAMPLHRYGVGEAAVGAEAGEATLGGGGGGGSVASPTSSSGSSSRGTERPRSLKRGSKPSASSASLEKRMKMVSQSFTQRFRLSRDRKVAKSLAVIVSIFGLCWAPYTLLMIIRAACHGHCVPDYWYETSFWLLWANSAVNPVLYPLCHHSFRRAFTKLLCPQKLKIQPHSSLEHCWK

**Q.** For `COc1cc2c(NC3CCN(C(C)C)CC3)nc(N3CCS(=O)(=O)CC3)nc2cc1OCCCN1CCCC1`, which IC50 [1] is on record?
**A.** The IC50 was 14 nM.

**Q.** For `COc1cc2c(NC3CCN(C(C)C)CC3)nc(N3CCCCCC3)nc2cc1OCCCN1CCCC1`, which IC50 [1] is on record?
**A.** Its IC50 is < 2.5 nM.

**Q.** For `COc1cc2c(NC3CCN(C4CC4)CC3)nc(N3CCS(=O)(=O)CC3)nc2cc1OCCCN1CCCC1`, which IC50 [1] is on record?
**A.** Its IC50 is 4 nM.

**Q.** What about the EC50 (MDA-MB-231) of the same compound?
**A.** Its EC50 is > 50000 nM.

**Q.** What about the IC50 [2] of the same compound?
**A.** Its IC50 is 590 nM.

**Q.** Which IC50 [1] does the source give for `COc1cc2c(NC3CCN(C(C)C)CC3)nc(C3CCCCC3)nc2cc1OCCCN1CCC(F)(F)CC1` here?
**A.** The IC50 was > 26000 nM.

**Q.** For `COc1cc2c(NC3CCN(C(C)C)CC3)nc(C3CCOCC3)nc2cc1OCCCN1CCC(F)(F)CC1`, which IC50 [1] is on record?
**A.** The IC50 was > 50000 nM.

**Q.** And the t1/2 (Liver)?
**A.** Its t1/2 is 0.167 h.

**Q.** Which EC50 (MDA-MB-231) does the source give for `COc1cc2c(NC3CCN(C(C)C)CC3)nc(N3CCC(F)(F)CC3)nc2cc1OCCCN1CCCC1` here?
**A.** Its EC50 is 16700 nM.

**Q.** What about the Ki (Histamine H3 receptor) of the same compound?
**A.** The Ki was 45 nM.

**Q.** And the Ki [3]?
**A.** The Ki was > 10000 nM.

**Q.** And the Cmax (Plasma [4])?
**A.** Its Cmax is 947 ng/mL.

**Q.** And the EC50 (PANC-1)?
**A.** Its EC50 is 3500 nM.

**Q.** What about the t1/2 (Liver) of the same compound?
**A.** Its t1/2 is > 1.5 h.

**Q.** What about the AUC(0-t) at 24 h [5] of the same compound?
**A.** Its AUC(0-t) at 24 h is 412 ng·h/mL.

**Q.** What about the AUC (Plasma [6]) of the same compound?
**A.** The AUC was 1265 ng·h/mL.

**Q.** What about the Ki [7] of the same compound?
**A.** Its Ki is 4500 nM.

**Q.** What about the Ki [8] of the same compound?
**A.** The Ki was 900 nM.

**Q.** And the EC50 (PC-3)?
**A.** Its EC50 is 8900 nM.

**Q.** What about the EC50 (U2OS) of the same compound?
**A.** Its EC50 is 6000 nM.

**Q.** What about the Cmax [9] of the same compound?
**A.** Its Cmax is 68 ng/mL.

**Q.** And the BPR (Nucleic Acid)?
**A.** Its BPR is 0.33.

**Q.** For `COc1cc2c(NC3CCN(C(C)C)CC3)nc(C3CCCCC3)nc2cc1OCCCN1CCCC1`, which Cmax (Plasma [4]) is on record?
**A.** The Cmax was 66 ng/mL.

**Q.** What about the t1/2 (Liver) of the same compound?
**A.** The t1/2 was 1.22 h.

**Q.** What about the AUC (Plasma [6]) of the same compound?
**A.** Its AUC is 404 ng·h/mL.

**Q.** Which IC50 [1] does the source give for `COc1cc2c(NC3CCN(C(C)C)CC3)nc(C3CCOCC3)nc2cc1OCCCN1CCCC1` here?
**A.** The IC50 was 9 nM.

**Q.** What about the EC50 (MDA-MB-231) of the same compound?
**A.** Its EC50 is > 50000 nM.

**Q.** And the t1/2 (Liver)?
**A.** Its t1/2 is 0.267 h.

**Q.** And the IC50 [2]?
**A.** Its IC50 is 310 nM.

**Q.** Which IC50 [1] does the source give for `COc1cc2c(NC3CCN(C(C)C)CC3)nc(N3CC(F)(F)C(F)(F)C3)nc2cc1OCCCN1CCCC1` here?
**A.** The IC50 was 26 nM.

**Q.** And the t1/2 (Liver)?
**A.** The t1/2 was > 1.5 h.

**Q.** For `COc1cc2c(NC3CCN(C4CC4)CC3)nc(N3CCC(F)(F)CC3)nc2cc1OCCCN1CCCC1`, which IC50 [1] is on record?
**A.** The IC50 was 3 nM.

**Q.** And the EC50 (MDA-MB-231)?
**A.** The EC50 was 14700 nM.

**Q.** And the IC50 [2]?
**A.** Its IC50 is 310 nM.

**Q.** For `COc1cc2c(NC3CCN(C(C)C)CC3)nc(N3CCOCC3)nc2cc1OCCCN1CCCC1`, which EC50 (MDA-MB-231) is on record?
**A.** The EC50 was 23700 nM.

**Q.** What about the Cmax (Plasma [4]) of the same compound?
**A.** Its Cmax is 731 ng/mL.

**Q.** What about the t1/2 (Liver) of the same compound?
**A.** The t1/2 was > 1.5 h.

**Q.** What about the AUC(0-t) at 24 h [5] of the same compound?
**A.** Its AUC(0-t) at 24 h is 721 ng·h/mL.

**Q.** And the AUC (Plasma [6])?
**A.** The AUC was 1061 ng·h/mL.

**Q.** What about the Cmax [9] of the same compound?
**A.** The Cmax was 99 ng/mL.

**Q.** What about the BPR (Nucleic Acid) of the same compound?
**A.** The BPR was 0.68.

**Q.** With `COc1cc2c(NC3CCN(C(C)C)CC3)nc(N3CCCCC3)nc2cc1OCCCN1CCCC1` as the compound, how does the IC50 [1] read?
**A.** Its IC50 is < 2.5 nM.

From ChEMBL document CHEMBL2440019, “Discovery of an in vivo chemical probe of the lysine methyltransferases G9a and GLP” (J Med Chem, 2013)
